# In patent US20230053328A9, “COMBINATION THERAPIES USING CDK INHIBITORS” (Pfizer Inc., priority 2019, published 2023):
# Test system: MC38 syngeneic mouse tumor model
# Test: MC38 syngeneic mouse tumor model, tumor growth inhibition and survival (Example 1)
# Format: in vivo
# Procedure: MC38 cells were obtained from American Type Culture Collection (ATCC) and cultured in Roswell Park Memorial Institute (RPMI1640) supplemented with 10% fetal bovine serum (FBS). All cells were maintained in a humidified incubator at 37° C. with 5% carbon dioxide (CO2). Female C57/BL6 mice were obtained from Jackson Laboratories at 8 weeks of age. To generate the syngeneic model, 0.5 million MC38 tumor cells were subcutaneously implanted into the right flank of female C57/BL6 mice. Tumor bearing mice were randomized into six treatment groups based on average tumor sizes of approximately 70 mm^3 per group, on Day 9 post tumor cell implantation. […]
# Tumor volumes were measured three times a week. Tumor volume was calculated based on two-dimensional caliper measurement with cubic millimeter volume calculated using the formula (length×width2)×0.5. […] Statistical significance determined using the Holm-Sidak method, with alpha=0.05.
structure (smiles),measurement,setting,value
"C[C@@]1(O)CCC[C@H]1n1c(=O)c(C(F)F)cc2cnc(NC3CCN(S(C)(=O)=O)CC3)nc21 [PF-06873600, 6-(difluoromethyl)-8-((1R,2R)-2-hydroxy-2-methylcyclopentyl)-2-(1-(methylsulfonyl)piperidin-4-ylamino)pyrido[2,3-d]pyrimidin-7(8H)-one]",synergy with OX40/4-1BB immune checkpoint modulators (in words),"MC38 syngeneic mouse tumor model, example heading",Synergizes
same,tumor growth inhibition (in words),"MC38 tumors in C57/BL6 mice, Day 27 post-treatment initiation",did not significantly inhibit tumor growth
